The source of these data is article PMC4855137, “Raffinose, a plant galactoside, inhibits Pseudomonas aeruginosa biofilm formation via binding to LecA and decreasing cellular cyclic diguanylate levels” (Scientific Reports, 2016).

The structures appear in SMILES notation.

In assay [1] the target is T1, LecA (PA-IL) (Pseudomonas aeruginosa, UniProt Q05097). The experiment in a line: isothermal titration calorimetry; CPMG NMR competition with raffinose. The format is binding. (Isothermal titration calorimetry measures the heat released or taken up as one component is titrated into another.)
T1 sequence (Q05097 2-122): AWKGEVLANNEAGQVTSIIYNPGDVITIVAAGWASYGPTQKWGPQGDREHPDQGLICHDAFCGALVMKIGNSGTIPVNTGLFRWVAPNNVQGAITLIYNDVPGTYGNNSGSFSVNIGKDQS
For assay [2], the target named is T1, LecA (PA-IL). The assay can be described thus: isothermal titration calorimetry; 1D relaxation-edited (CPMG) NMR with galactose competition. The format is binding.

In the case of `OC[C@H]1OC(O)[C@H](O)[C@@H](O)[C@H]1O` (stereo partly drawn) [D-galactose], the Kd (commonly the equilibrium constant for the complex coming apart) at LecA (PA-IL) [1] is 47 µM.
`OC[C@H]1O[C@H](OC[C@H]2O[C@H](O[C@]3(CO)O[C@H](CO)[C@@H](O)[C@@H]3O)[C@H](O)[C@@H](O)[C@@H]2O)[C@H](O)[C@@H](O)[C@H]1O` [raffinose] displayed a Kd on LecA (PA-IL) [2] of 32 µM.
